In brackets after ≈: the same amount, converted by molar mass. Like-named read-outs stand apart in the source and are kept apart here.
Key:
S. aureus Topo IV = biological target: T1, S. aureus Topo IV (Staphylococcus aureus, UniProt Q2FYS4); assay: biochemical; settings: for IC50: mean of two to four measurements, read-out: Topoisomerase IV IC50 S. aureus
T1 construct: purchased Inspiralis (Norwich, UK)
Protocol: (§1) A Topo IV Relaxation High Throughput Plate assay kit, purchased from Inspiralis (Norwich. UK) was used to determine IC50 values of compounds on S. aureus and E. coli. […] Biotinylated oligonucleotide in wash buffer was immobilized onto the wells, and the excess oligonucleotide was washed off with wash buffer and ultrapure water. 1.5 U of S. aureus or E. coli […] enzyme was incubated together with 0.75 μg of supercoiled pNO1 plasmid as a substrate in the presence of 3 μL inhibitor solution in 10% DMSO and 0.008% Tween 20 at 37 °C for 30 min in a final reaction volume of 30 μL in dilution buffer (50 mM Tris-HCl (pH 7.5), 1 mM DTT, 1 mM EDTA, 40% (w/v) glycerol for S. aureus and 40 mM HEPES, KOH (pH 7.6), 100 mM potassium glutamate, 1 mM DTT, 1 mM EDTA, and 40% (v/v) glycerol for E. coli). The reactions were stopped by adding the TF buffer (50 mM NaOAc (pH 4.7), 50 mM NaCl, and 50 mM MgCl2) to allow the triplex formation (biotin-oligonucleotide-plasmid) for additional 30 min. Afterward, the unbound plasmid was washed off using TF buffer, and the solution of Promega Diamond dye in T10 buffer (10 mM Tris-HCl (pH 8.0), 1 mM EDTA) was added. […] IC50 value represents the mean of two to four independent measurements.

E. coli Topo IV = biological target: T2, E. coli Topo IV (Escherichia coli, UniProt P0AFI2); assay: Topo IV Relaxation High Throughput Plate assay, E. coli; assay type: biochemical; settings: for LE Topo IV E. coli: LE = (1.37/HA) × pIC50
T2 construct: purchased Inspiralis (Norwich, UK)
Protocol: as §1

Human topoisomerase IIα = biological target: T3, Human topoisomerase IIα (Homo sapiens, UniProt P11388); assay: Human topoisomerase II Alpha Relaxation High Throughput Plate assay; assay type: biochemical; settings: 0.5 h; residual activity of the enzyme at compound concentration 10 μM, mean ± SD; read-out: Human Topo II (% RA)
T3 construct: purchased Inspiralis (Norwich, UK)
Protocol: A Human topoisomerase II Alpha Relaxation High Throughput Plate assay kit, purchased from Inspiralis (Norwich, UK) was used to evaluate the selectivity of compounds for the bacterial enzymes over the homologous human topoisomerase II. […] Biotinylated oligonucleotide in wash buffer was immobilized onto the wells and the excess oligonucleotide was washed off with wash buffer. […] The reactions were stopped by adding the TF buffer (50 mM NaOAc (pH 4.7), 50 mM NaCl, and 50 mM MgCl2) to allow the triplex formation (biotin-oligonucleotide-plasmid) for additional 30 min. Afterward, the unbound plasmid was washed off using TF buffer, and the solution of Promega Diamond dye in T10 buffer (10 mM Tris-HCl (pH 8.0), 1 mM EDTA) was added. […] Screening was performed at inhibitor concentrations of 10 μM. Raw data were converted to mean ± SD percentage of residual activity of the enzyme obtained by two independent measurements.

S. aureus (ATCC 29213) = assay: MIC broth microdilution, S. aureus ATCC 29213; assay type: cell-based; settings: Staphylococcus aureus, ATCC29213
Protocol: (§2) Antimicrobial testing was carried out by the broth microdilution method in 96-well plate format following the Clinical and Laboratory Standards Institute (CLSI) guidelines and European Committee on Antimicrobial Susceptibility Testing (EUCAST) recommendations. Bacterial suspension of specific bacterial strain equivalent to 0.5 McFarland turbidity standard was diluted with cation-adjusted Mueller Hinton broth with TES (Thermo Fisher Diagnostic, Landsmeer, The Netherlands), to obtain a final inoculum of 10^5 CFU/mL. Compounds dissolved in DMSO and inoculum were mixed together and incubated for 18–20 h at 35 °C. Suspensions of Mycobacterium sp. were prepared into a tube of Middelbrook 7H9 broth supplemented with 5% OADC (Thermo Scientific, Trek Diagnostic Systems, West Sussex, UK) and incubated for at least 10 days. After incubation the minimal inhibitory concentration (MIC) values were determined by visual inspection as the lowest dilution of compounds showing no turbidity. Tetracycline was used as a positive control on every assay plate.

MRSA = assay: MIC broth microdilution, MRSA; assay type: cell-based, methicillin-resistant S. aureus; settings: Staphylococcus aureus, read-out: MIC MRSA
Protocol: as §2

MRSA (QA-11.7) = assay: MIC broth microdilution, MRSA QA-11.7; assay type: cell-based, methicillin-resistant S. aureus; settings: Staphylococcus aureus, 20 h, read-out: MIC MRSA (QA-11.7)
Protocol: as §2

MRSA (QA-11.4) = assay: MIC broth microdilution, MRSA QA-11.4; assay type: cell-based, methicillin-resistant S. aureus; settings: Staphylococcus aureus, 20 h, resistant to cefoxitin, read-out: MIC MRSA (QA-11.4)
Protocol: as §2

[1] = system: E. faecalis DRK 057 (ATCC 29212); assay: MIC broth microdilution, E. faecalis; assay type: cell-based; settings: Enterococcus faecalis, ATCC29212; read-out: MIC E. faecalis DRK 057 (ATCC 29212)
Protocol: as §2

S. pneumoniae (QA-10/02) = assay: MIC broth microdilution, S. pneumoniae; assay type: cell-based; settings: Streptococcus pneumoniae
Protocol: as §2

E. coli (ATCC 25922) = assay: MIC broth microdilution, E. coli ATCC 25922; assay type: cell-based; settings: Escherichia coli, ATCC25922
Protocol: as §2

E. coli (QA-11.7) = assay: MIC broth microdilution, E. coli QA-11.7; assay type: cell-based; settings: Escherichia coli, 20 h; multi-resistant isolate (ampicillin, azithromycin, cefotaxime, ertapenem, imipenem and others); read-out: MIC E. coli (QA-11.7)
Protocol: as §2

E. coli (QA-11.3) = assay: MIC broth microdilution, E. coli QA-11.3; assay type: cell-based; settings: Escherichia coli, 20 h; read-out: MIC E. coli (QA-11.3)
Protocol: as §2

E. coli D22 = assay: MIC broth microdilution, E. coli D22; assay type: cell-based; settings: Escherichia coli, D22; mutation in the lpxC gene that increases membrane permeability; read-out: MIC E. coli D22
Protocol: as §2

[2] = system: A. baumannii 8C6 (GES-14); assay: MIC broth microdilution, A. baumannii; assay type: cell-based; settings: Acinetobacter baumannii; read-out: MIC A. baumannii 8C6 (GES-14)
Protocol: as §2

[3] = system: P. aeruginosa RDK 184 (DSM 939); assay: MIC broth microdilution, P. aeruginosa; assay type: cell-based; settings: Pseudomonas aeruginosa, DSM939; read-out: MIC P. aeruginosa RDK 184 (DSM 939)
Protocol: as §2

[4] = system: C. jejuni RDK 135 (ATCC 33560); assay: MIC broth microdilution, C. jejuni; assay type: cell-based; settings: Campylobacter jejuni, ATCC33560; read-out: MIC C. jejuni RDK 135 (ATCC 33560)
Protocol: as §2

M. smegmatis = assay: MIC, M. smegmatis; assay type: cell-based, Mycobacterium smegmatis; settings: Mycolicibacterium smegmatis; read-out: MIC M. smegmatis
Protocol: as §2

[5] = S. aureus ATCC 29213, read-out: S. aureus MIC (converted)
[6] = read-out: MIC S. aureus (ATCC 29213)
[7] = E. coli ATCC 25922, read-out: E. coli MIC (converted)
[8] = read-out: MIC E. coli (ATCC 25922)

T1 sequence (Q2FYS5 whole entry): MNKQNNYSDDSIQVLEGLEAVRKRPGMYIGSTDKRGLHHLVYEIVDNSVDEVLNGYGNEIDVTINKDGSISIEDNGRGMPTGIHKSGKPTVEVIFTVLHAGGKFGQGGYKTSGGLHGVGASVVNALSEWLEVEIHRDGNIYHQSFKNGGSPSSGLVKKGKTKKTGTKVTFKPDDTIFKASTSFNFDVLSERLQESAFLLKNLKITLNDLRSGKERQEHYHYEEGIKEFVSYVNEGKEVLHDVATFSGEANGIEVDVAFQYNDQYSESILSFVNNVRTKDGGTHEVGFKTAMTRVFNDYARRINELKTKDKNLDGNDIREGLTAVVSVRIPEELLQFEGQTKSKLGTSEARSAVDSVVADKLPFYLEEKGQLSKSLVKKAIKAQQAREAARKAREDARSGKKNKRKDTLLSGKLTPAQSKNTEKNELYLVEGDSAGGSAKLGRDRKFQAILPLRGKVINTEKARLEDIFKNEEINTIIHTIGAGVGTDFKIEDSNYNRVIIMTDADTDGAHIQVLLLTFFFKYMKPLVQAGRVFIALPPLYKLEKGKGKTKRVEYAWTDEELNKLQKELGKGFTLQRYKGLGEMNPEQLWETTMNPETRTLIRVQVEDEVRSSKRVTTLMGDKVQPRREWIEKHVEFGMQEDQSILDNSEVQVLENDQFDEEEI
T1 sequence (Q2FYS4 whole entry): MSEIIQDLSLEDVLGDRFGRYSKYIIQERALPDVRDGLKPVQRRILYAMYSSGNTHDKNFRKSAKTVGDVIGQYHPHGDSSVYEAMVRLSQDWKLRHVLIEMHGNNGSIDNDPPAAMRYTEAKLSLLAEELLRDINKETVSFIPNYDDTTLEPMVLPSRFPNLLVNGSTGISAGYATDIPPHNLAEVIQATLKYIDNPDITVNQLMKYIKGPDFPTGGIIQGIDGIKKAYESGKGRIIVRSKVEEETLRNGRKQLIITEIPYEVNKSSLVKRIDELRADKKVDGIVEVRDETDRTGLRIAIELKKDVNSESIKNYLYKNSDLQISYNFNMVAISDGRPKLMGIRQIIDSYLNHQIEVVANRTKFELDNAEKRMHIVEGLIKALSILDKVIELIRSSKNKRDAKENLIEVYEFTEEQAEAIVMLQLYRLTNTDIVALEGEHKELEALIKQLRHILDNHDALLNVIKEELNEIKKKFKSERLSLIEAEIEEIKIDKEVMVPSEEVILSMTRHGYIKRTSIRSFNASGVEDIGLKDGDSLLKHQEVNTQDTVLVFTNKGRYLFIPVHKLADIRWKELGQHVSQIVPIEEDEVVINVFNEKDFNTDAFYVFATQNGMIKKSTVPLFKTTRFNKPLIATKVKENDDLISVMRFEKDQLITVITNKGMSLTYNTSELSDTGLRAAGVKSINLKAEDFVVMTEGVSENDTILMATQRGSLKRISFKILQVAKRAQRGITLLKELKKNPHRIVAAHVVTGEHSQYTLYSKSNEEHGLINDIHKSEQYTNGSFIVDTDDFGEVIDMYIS
T3 sequence (P11388 whole entry): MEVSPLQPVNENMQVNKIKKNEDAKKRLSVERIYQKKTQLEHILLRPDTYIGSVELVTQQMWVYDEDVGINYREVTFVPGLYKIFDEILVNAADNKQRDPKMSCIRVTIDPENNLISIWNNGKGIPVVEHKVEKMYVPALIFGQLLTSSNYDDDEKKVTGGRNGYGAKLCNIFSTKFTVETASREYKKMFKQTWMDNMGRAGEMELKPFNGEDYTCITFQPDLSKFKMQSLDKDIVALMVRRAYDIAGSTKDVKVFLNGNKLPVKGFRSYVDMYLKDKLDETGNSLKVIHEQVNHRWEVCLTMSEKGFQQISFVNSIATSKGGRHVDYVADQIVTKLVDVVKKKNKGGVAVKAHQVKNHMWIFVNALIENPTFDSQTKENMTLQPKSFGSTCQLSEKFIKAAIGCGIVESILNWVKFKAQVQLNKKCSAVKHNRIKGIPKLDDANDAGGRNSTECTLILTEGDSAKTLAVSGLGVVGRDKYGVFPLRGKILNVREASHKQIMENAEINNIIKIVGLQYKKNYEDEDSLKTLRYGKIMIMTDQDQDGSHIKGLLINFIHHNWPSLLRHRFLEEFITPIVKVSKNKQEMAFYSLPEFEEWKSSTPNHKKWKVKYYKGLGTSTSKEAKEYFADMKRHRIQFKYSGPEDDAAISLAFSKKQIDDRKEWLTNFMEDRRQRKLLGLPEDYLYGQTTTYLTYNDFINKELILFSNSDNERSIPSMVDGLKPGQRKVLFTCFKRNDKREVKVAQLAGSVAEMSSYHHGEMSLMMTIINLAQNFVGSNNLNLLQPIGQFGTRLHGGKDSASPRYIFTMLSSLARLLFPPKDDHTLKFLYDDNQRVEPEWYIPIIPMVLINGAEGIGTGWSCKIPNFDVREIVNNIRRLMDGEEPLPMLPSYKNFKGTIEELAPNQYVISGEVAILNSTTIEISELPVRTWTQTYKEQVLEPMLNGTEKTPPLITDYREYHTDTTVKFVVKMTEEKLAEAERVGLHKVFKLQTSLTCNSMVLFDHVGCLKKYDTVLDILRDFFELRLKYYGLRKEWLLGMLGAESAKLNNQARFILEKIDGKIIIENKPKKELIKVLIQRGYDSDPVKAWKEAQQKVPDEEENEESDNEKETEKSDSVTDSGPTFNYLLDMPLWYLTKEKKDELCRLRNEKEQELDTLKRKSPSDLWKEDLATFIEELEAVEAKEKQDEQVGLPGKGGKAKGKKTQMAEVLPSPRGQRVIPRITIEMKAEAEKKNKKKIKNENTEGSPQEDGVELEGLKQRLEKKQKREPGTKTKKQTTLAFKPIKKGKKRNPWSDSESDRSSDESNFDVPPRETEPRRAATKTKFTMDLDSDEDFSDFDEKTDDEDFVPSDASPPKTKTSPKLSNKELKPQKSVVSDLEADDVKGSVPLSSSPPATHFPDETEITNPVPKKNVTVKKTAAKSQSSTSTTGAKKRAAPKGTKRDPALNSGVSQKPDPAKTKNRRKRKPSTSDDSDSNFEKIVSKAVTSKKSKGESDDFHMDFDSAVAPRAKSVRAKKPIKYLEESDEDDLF
T2 sequence (P0AFI2 whole entry): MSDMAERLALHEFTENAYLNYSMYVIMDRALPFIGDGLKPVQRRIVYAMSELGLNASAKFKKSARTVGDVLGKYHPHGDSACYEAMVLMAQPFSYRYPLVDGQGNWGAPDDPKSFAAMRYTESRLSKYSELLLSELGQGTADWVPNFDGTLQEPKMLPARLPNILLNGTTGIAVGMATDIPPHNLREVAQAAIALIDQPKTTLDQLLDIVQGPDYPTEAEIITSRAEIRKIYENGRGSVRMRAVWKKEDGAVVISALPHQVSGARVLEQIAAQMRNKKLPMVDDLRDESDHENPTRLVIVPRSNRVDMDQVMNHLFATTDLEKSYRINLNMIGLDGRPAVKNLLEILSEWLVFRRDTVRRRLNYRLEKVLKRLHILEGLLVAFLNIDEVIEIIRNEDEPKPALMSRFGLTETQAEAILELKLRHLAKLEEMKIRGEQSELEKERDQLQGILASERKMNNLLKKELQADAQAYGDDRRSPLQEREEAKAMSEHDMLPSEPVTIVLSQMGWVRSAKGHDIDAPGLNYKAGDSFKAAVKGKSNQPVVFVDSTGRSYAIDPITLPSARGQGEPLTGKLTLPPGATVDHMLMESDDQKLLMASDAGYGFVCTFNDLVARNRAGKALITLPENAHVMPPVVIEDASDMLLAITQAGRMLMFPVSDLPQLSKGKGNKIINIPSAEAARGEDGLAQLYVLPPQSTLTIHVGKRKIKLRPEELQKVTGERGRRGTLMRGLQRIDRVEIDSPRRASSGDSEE
T2 sequence (P20083 whole entry, further chain): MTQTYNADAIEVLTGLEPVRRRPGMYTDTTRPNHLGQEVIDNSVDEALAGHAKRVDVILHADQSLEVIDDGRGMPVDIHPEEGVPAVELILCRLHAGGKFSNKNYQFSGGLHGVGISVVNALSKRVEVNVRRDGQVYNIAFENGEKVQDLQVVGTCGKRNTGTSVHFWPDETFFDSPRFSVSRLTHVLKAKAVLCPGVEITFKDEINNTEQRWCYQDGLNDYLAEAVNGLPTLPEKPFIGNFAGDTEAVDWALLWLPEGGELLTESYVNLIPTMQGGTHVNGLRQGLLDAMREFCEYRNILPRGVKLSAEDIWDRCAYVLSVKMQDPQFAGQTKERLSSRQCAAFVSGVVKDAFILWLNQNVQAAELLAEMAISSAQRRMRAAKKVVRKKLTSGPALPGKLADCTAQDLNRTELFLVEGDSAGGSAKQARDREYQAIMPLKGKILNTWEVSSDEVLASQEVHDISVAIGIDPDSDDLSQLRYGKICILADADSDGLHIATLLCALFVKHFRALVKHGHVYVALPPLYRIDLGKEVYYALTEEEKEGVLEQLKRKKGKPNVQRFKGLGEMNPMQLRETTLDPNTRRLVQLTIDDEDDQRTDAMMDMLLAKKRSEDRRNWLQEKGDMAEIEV

Row | Structure (SMILES) | IC50 (S. aureus Topo IV) | IC50 (E. coli Topo IV) | LE Topo IV E. coli (E. coli Topo IV) | remaining activity at 10 µM (Human topoisomerase IIα) | MIC (S. aureus (ATCC 29213); [5]) | MIC (S. aureus (ATCC 29213); [6]) | MIC (MRSA) | MIC (MRSA (QA-11.7)) | MIC (MRSA (QA-11.4)) | MIC [1] | MIC (S. pneumoniae (QA-10/02)) | MIC (E. coli (ATCC 25922); [7]) | MIC (E. coli (ATCC 25922); [8]) | MIC (E. coli (QA-11.7)) | MIC (E. coli (QA-11.3)) | MIC (E. coli D22) | MIC [2] | MIC [3] | MIC [4] | MIC (M. smegmatis) | also measured
1 | COc1ccc2nccc(CCN3CCC(NCc4cnn(C(C)C)c4)CC3)c2n1 [Compound 9, N-((1-Isopropyl-1H-pyrazol-4-yl)methyl)-1-(2-(6-methoxy-1,5-naphthyridin-4-yl)ethyl)piperidin-4-amine] | 40380 ± 90 nM | 230 nM | 0.30 | 101 ± 6.82% | 0.31 µM | 0.125 µg/mL | 0.25 µg/mL (≈ 0.612 µM) | 1 µg/mL (≈ 2.45 µM) | 1 µg/mL (≈ 2.45 µM) | 1 µg/mL (≈ 2.45 µM) | 0.5 µg/mL (≈ 1.22 µM) | 19.6 µM | 8 µg/mL | 2 µg/mL (≈ 4.9 µM) | 4 µg/mL (≈ 9.79 µM) | 1 µg/mL (≈ 2.45 µM) | 2 µg/mL (≈ 4.9 µM) | > 128 µg/mL | 0.5 µg/mL (≈ 1.22 µM) | 0.25 µg/mL (≈ 0.612 µM) | LE Topo IV S. aureus (S. aureus Topo IV; LE = (1.37/HA) × pIC50): 0.20
2 | C=CCn1cc(CNC2CCN(CCc3ccnc4ccc(OC)nc34)CC2)cn1 [Compound 10, N-((1-Allyl-1H-pyrazol-4-yl)methyl)-1-(2-(6-methoxy-1,5-naphthyridin-4-yl)ethyl)piperidin-4-amine] | > 100000 nM | 280 ± 10 nM | 0.30 | 95.7 ± 6.42% | 4.92 µM | 2 µg/mL | 2 µg/mL (≈ 4.92 µM) | 4 µg/mL (≈ 9.84 µM) | 4 µg/mL (≈ 9.84 µM) | 8 µg/mL (≈ 19.7 µM) | 1 µg/mL (≈ 2.46 µM) | 39.4 µM | 16 µg/mL | 4 µg/mL (≈ 9.84 µM) | 8 µg/mL (≈ 19.7 µM) | 8 µg/mL (≈ 19.7 µM) | 32 µg/mL (≈ 78.7 µM) | > 128 µg/mL | 8 µg/mL (≈ 19.7 µM) | ≤ 1 µg/mL | –
3 | COc1ccc2nccc(CCN3CCC(NCc4ccccc4)CC3)c2n1 [Compound 11] | > 100000 nM | 2040 ± 200 nM | 0.28 | 97 ± 9.58% | 10.6 µM | 4 µg/mL | 8 µg/mL (≈ 21.2 µM) | 8 µg/mL (≈ 21.2 µM) | 8 µg/mL (≈ 21.2 µM) | 16 µg/mL (≈ 42.5 µM) | 2 µg/mL (≈ 5.31 µM) | 170 µM | 64 µg/mL | 32 µg/mL (≈ 85 µM) | 32 µg/mL (≈ 85 µM) | 16 µg/mL (≈ 42.5 µM) | 64 µg/mL (≈ 170 µM) | > 128 µg/mL | 32 µg/mL (≈ 85 µM) | 8 µg/mL (≈ 21.2 µM) | –
4 | COc1ccc2nccc(CCN3CCC(NCc4ccc(F)cc4)CC3)c2n1 [Compound 12] | > 100000 nM | 280 ± 30 nM | 0.31 | 101 ± 11.2% | 2.54 µM | 1 µg/mL | 2 µg/mL (≈ 5.07 µM) | 4 µg/mL (≈ 10.1 µM) | 4 µg/mL (≈ 10.1 µM) | 8 µg/mL (≈ 20.3 µM) | 2 µg/mL (≈ 5.07 µM) | 81.1 µM | 32 µg/mL | 8 µg/mL (≈ 20.3 µM) | 8 µg/mL (≈ 20.3 µM) | 16 µg/mL (≈ 40.6 µM) | 32 µg/mL (≈ 81.1 µM) | > 128 µg/mL | 1 µg/mL (≈ 2.53 µM) | 2 µg/mL (≈ 5.07 µM) | –
